Holding throughout (type): cell-based
The target of assay [1] is T1, Kv1.3/ET (Kv1.3/Q355 E_M358T) (Homo sapiens, UniProt P22001, M358T/Q355E).
T1 construct: expressed in transfected cells; host or cells: CHO-K1
Kind of assay: Whole-cell patch clamp, Kv1.3 double mutant. The following applies: +30 mV, mean ± SD, n = 3–5. From the text:
(§1) In contrast, differences at positions 347, 355, and 358 between Kv1.3 and Kv1.1 prompted further analysis. To explore whether these discrepancies influence peptide-mediated inhibition, we substituted these residues in Kv1.3 with their homologous counterparts in Kv1.1 and assessed the MrVIII's inhibitory efficacy on these single-point mutants. […] To further investigate this, we introduced double adjacent mutations around Q355 and M358 in Kv1.3 to explore potential synergistic effects on MrVIII's inhibitory activity. […]
(§2) CHO-K1 cells were selected for expressing Kv channels due to their lack of endogenous Kv channels, while HEK293 or ND7/23 cells were used for Nav and Cav channel expression. […] After 4 to 6 h transfection, cells were seeded onto poly-lysine–coated coverslips, and 24 to 36 h later, transfected cells were ready for patch-clamp analysis. […]
(§3) For Kv current recordings, the bath solution contained (in mM) the following: 140 NaCl, 5 KCl, 1 MgCl2, 2 CaCl2, 10 glucose, and 10 Hepes (pH 7.3, adjusted with NaOH), and the pipette solution contained (in mM) the following: 140 KCl, 2.5 MgCl2, 11 EGTA, and 10 Hepes (pH 7.3, adjusted with KOH). […] Whole cell conductance (G) at each depolarizing voltage (V) was determined using the equation: G = I/(V−Vrev), where I is the current amplitude, and Vrev is the reversal potential. […]

Assay [2] deals with T2, Kv1.1/QM (Kv1.1/E283Q_T286M) (Homo sapiens, UniProt Q09470, E283Q/T286M).
T2 construct: expressed in transfected cells; host or cells: CHO-K1
Briefly: Whole-cell patch clamp, Kv1.1 double mutant. The following applies: +30 mV, mean ± SD, n = 3–5, read-out: IC50, Kv1.1/QM current (full inhibition).
Text: as §1, §2, §3

Assay [3] concerns Kv2.1. Briefly: Selectivity patch clamp, non-Kv1 channels. The following applies: 10 μM MrVIII; n = 3–5. How it is done: (§4) CHO-K1 cells were selected for expressing Kv channels due to their lack of endogenous Kv channels, while HEK293 or ND7/23 cells were used for Nav and Cav channel expression. CHO-K1 cells were cultured in a Dulbecco's modified Eagle's medium/Ham's F-12 nutrient mixture (DMEM-F12) medium, and HEK293T and ND7/23 cells in DMEM medium, all supplemented with 10% fetal bovine serum and 1% penicillin-streptomycin (all from Gibco, Thermo Fisher Scientific, Inc) under standard conditions (37 °C, 5% CO2, and saturated humidity). These cell lines were purchased from Stem Cell Bank, Chinese Academy of Sciences. Channel plasmids were cotransfected with pEGFP-N1 (encoding GFP) into the respective cells using lipofectamine 2000, following the manufacturer's instructions (Invitrogen, Thermo Fisher Scientific, Inc.). Nav1.9-GFP plasmid was transfected into ND7/23 using the X-tremeGENE HP DNA Transfection Reagent (Roche). After 4 to 6 h transfection, cells were seeded onto poly-lysine–coated coverslips, and 24 to 36 h later, transfected cells were ready for patch-clamp analysis.
(§5) Patch clamp experiments were conducted using an electrophysiology platform comprising a MultiClamp 700B amplifier and an Axon Digidata 1550 AD/DA convertor (Axon Instruments). Data acquisition was performed with pClamp 10.5 software (Axon Instruments). All experiments were performed at room temperature.
(§6) For Kv current recordings, the bath solution contained (in mM) the following: 140 NaCl, 5 KCl, 1 MgCl2, 2 CaCl2, 10 glucose, and 10 Hepes (pH 7.3, adjusted with NaOH), and the pipette solution contained (in mM) the following: 140 KCl, 2.5 MgCl2, 11 EGTA, and 10 Hepes (pH 7.3, adjusted with KOH). Series resistance was maintained below 10 MΩ and compensated to 80%. Concentration–response curves were fitted by the Hill equation to determine the toxin's potency. Whole cell conductance (G) at each depolarizing voltage (V) was determined using the equation: G = I/(V−Vrev), where I is the current amplitude, and Vrev is the reversal potential. The reversal potential for K^+ current was estimated to be −85.6 mV using the Nernst equation. G-V curves were obtained by plotting the normalized conductance as a function of V and fitted by the Boltzmann equation: y = 1/(1+ exp((Va-V)/k)), which Va is the midpoint voltage, V is the test potential, and k is the slope factor. The steady-state fast inactivation of Kv1.3 was measured using a two-pulses protocol. The cell was held at −120 mV, and a train of conditional voltages (−120–40 mV in 10 mV increments, 60 s) were applied to induce channel inactivation, followed by a +60 mV test pulse (300 ms) to assess the proportion of noninactivated channels. The sweep interval was set to 30 s. Currents at the test pulse (I) were normalized to the maximum value (Imax) and plotted as a function of the conditional voltage (V). The curve was fitted by the Boltzmann equation: I/Imax = A+(1 − A)/(1+exp ((V−Vh)/K)), where Vh is the half-maximum inactivation voltage, A represents the minimum channel availability, and k is the slope factor.

The test system of assay [4] is Kv3.1-3.3. Briefly: Selectivity patch clamp, non-Kv1 channels. The following applies: 10 μM MrVIII; n = 3–5. How it is done:
as §4, §5, §6
On the technique in general: Patch clamp records ionic current or voltage across a cell membrane.

Assay [5] concerns Kv4.1-4.3. Briefly: Selectivity patch clamp, non-Kv1 channels. The following applies: 10 μM MrVIII; n = 3–5. How it is done:
as §4, §5, §6

For assay [6], the system named is Kv7.1. Briefly: Selectivity patch clamp, non-Kv1 channels. The following applies: 10 μM MrVIII; n = 3–5. How it is done:
as §4, §5, §6

Assay [7] relates to Kv7.3. Briefly: Selectivity patch clamp, non-Kv1 channels. The following applies: 10 μM MrVIII; n = 3–5. How it is done:
as §4, §5, §6

Bridge positions count the residues as written; N and C are the ends. Peptide text beside a SMILES is read from it.

T1 sequence (P22001 whole entry Q355E/M358T): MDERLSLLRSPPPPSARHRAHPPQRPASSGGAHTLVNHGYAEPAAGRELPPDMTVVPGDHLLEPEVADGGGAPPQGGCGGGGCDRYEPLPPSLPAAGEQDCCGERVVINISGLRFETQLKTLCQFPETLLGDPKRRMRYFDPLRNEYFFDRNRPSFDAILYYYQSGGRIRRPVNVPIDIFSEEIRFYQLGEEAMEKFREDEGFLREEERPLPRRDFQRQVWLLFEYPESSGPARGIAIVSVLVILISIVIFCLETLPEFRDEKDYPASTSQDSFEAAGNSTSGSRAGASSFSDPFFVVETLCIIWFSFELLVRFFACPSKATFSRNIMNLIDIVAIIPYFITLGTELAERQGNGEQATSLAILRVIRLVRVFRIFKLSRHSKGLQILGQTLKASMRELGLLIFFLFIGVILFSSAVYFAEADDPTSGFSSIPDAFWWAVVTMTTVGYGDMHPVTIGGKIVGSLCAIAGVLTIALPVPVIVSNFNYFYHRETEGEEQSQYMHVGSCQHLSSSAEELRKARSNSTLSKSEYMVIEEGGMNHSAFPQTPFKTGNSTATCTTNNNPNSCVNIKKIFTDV
T2 sequence (Q09470 whole entry E283Q/T286M): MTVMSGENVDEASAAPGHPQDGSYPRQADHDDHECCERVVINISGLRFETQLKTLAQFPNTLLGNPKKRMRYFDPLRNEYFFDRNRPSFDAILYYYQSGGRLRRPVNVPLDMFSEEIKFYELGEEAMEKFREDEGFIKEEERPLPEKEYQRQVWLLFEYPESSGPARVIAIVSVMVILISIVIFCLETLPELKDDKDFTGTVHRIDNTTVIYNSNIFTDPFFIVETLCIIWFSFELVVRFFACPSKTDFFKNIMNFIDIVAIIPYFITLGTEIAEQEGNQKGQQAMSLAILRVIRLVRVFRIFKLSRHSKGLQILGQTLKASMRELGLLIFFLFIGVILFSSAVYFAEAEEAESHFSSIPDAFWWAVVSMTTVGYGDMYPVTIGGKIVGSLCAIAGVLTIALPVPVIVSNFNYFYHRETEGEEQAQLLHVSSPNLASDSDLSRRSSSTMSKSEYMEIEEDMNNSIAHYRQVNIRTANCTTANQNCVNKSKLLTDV

With `CC[C@H](C)[C@@H]1NC(=O)[C@H](Cc2ccc(O)cc2)NC(=O)[C@H](CCC(N)=O)NC(=O)[C@@H]2CCCN2C(=O)[C@@H]2CSSC[C@H](NC(=O)[C@H](C)NC(=O)[C@H](CO)NC(=O)[C@H](CCC(=O)O)NC(=O)[C@H](CCC(=O)O)NC(=O)[C@@H](N)[C@@H](C)O)C(=O)NCC(=O)NCC(=O)N[C@@H](Cc3ccccc3)C(=O)N[C@@H](CC(N)=O)C(=O)N[C@@H](C)C(=O)N[C@@H](CCCNC(=N)N)C(=O)N[C@H]3CSSC[C@H](NC1=O)C(=O)N[C@@H](CCCCN)C(=O)NCC(=O)N[C@@H](Cc1c[nH]c4ccccc14)C(=O)N[C@@H](CCCNC(=N)N)C(=O)N[C@@H]([C@@H](C)O)C(=O)N[C@@H](CCCCN)C(=O)N[C@@H](CCCNC(=N)N)C(=O)N[C@H](C(=O)N[C@@H](CC(C)C)C(=O)N[C@@H](CC(N)=O)C(=O)N1CCC[C@H]1C(=O)O)CSSC[C@H](NC(=O)[C@H](CCCCN)NC(=O)[C@H](Cc1c[nH]cn1)NC(=O)[C@H](CC(C)C)NC(=O)[C@@H]1CCCN1C3=O)C(=O)N2` [MrVIII] (H-TEESACGGFNARCPLHKCCPQYICKGWRTKRCLNP-OH; disulfide 6-19, 13-24, 18-32; N-terminus and C-terminus assumed), the IC50 in assay [1] (current at 50 ms) came to 122 ± 24.5 nM; in assay [2], 7.7 ± 5.3 nM. Also, the “inhi%(495 ms), Kv1.3/ET current” value in assay [1] (current at 495 ms) is −35.4 ± 20.7%. In addition, the “inhibition of Kv2.1 current” value in assay [3] is listed as “did not remarkably inhibit”. Also, the “inhibition of Kv3.1-3.3 currents” value in assay [4] is listed as “did not remarkably inhibit”. The “inhibition of Kv4.1-4.3 currents” value in assay [5] is “did not remarkably inhibit”. Further, in assay [6], the “inhibition of Kv7.1 current” value is listed as “did not remarkably inhibit”. Besides, the “inhibition of Kv7.3 current” value in assay [7] is “did not remarkably inhibit”.

The record behind these values is PMC11984586, “A novel spider toxin as a selective antagonist of the Kv1 subfamily of voltage-gated potassium channels through gating modulation” (The Journal of Biological Chemistry, 2025).
